Data taken from US20240287062A1, “NAPHTHYRIDONE COMPOUNDS FOR INHIBITION OF RAF KINASES AND/OR BCR-ABL TYROSINE KINASES” (Enliven Inc., priority 2021, published 2024).
Like-named read-outs stand apart in the source and are kept apart here.

What was measured:
Assay type in all cases: cell-based
[1] = test system: phosphorylated ERK (pERK); test: Detection of phosphorylated ERK (pERK), AlphaLISA in A375 cells; settings: four hours incubation, inhibition of ERK phosphorylation, read-out: PERK ELISA (IC50)
Experimental: A375 cells were counted and seeded at 10,000 cells/well in 384 well plates (Corning 3764) and allowed to adhere overnight.
Compounds were dissolved and serially diluted in DMSO. The compounds were then added, mixed, and incubated for four hours at 37° C., 5% CO2. Compounds were added using four-fold dilutions at final concentrations ranging from 10 μM to 0.01 nM. DMSO only and 10 uM staurosporine were added as high and low controls.
Following the four-hour incubation with compounds, cell lysates were prepared and AlphaLISA assay measuring phosphorylated ERK was performed. Media was removed using the Apricot Designs pipettor. Lysis buffer was made from 1× AlphaLISA SureFire Assay Kit (AlphaLISA SureFire Ultra pERK 12 (Thr202/Tyr204) ALSU-PERK-A50K) lysis buffer with protease and phosphatase inhibitors. Cells were lysed by adding 10 uL to all the wells and mixed for 40 minutes on a plate shaker. 10 uL cell lysate was transferred to a new Optiplate (PerkinElmer 6007290) and incubated with 5 uL 1× acceptor mix for 2 hours in the dark. 5 uL of 1× donor mix was added to all wells and mixed by shaking followed by overnight incubation in the dark.
pERK AlphaLISA signal was read on the Envision using standard AlphaLISA settings. Percent inhibition of ERK phosphorylation was calculated by % Inhibition=100×(LumHC−LumSample)/(LumHC−LumLC). The low and high controls (LC/HC) are generated from lysate from wells with cells treated with DMSO or […] Staurosporine (BioAustralis, cat #BIA-S1086), […]. IC50 values were calculated by fitting the Curve using XLfit (v5.3.1.3), equation 201: Y=Bottom+(Top−Bottom)/(1+10^((Log IC50−X)*HillSlope)).

A375 (BRAF V600E) = test: Cell viability assay (CellTiter Glo)
Experimental: (§1) Cell viability was measured in the following MAPK pathway mutant cancer cell lines: A375 (BRAF V600E), HepG2 (NRAS Q61L), SK-MEL-30 (NRAS Q61K), and OCI-AML-2 (MBNL1-CRAF fusion). Cell viability was also measured in K562 cells.
(§2) A375, HepG2, SK-MEL-30 and OCI-AML-2 cells were grown in the appropriate growth medium as described in Table B2 below, and harvested at 50-80% confluence. Cells were counted and seeded at their appropriate density (see Table B1) in a 384-well plate (Corning 3570). A375, HepG2 and SK-MEL-30 were allowed to adhere overnight prior to treatment and the OCI-AML-2 were treated immediately for the indicated drug treatment times (Table 6).
(§3) Table 6 provides the growth media, number of cells seeded per well and drug treatment times for the each cell line. K562 cells were grown as described in Example B1 above.
(§4) Compounds were dissolved in DMSO and serially diluted. Serially-diluted compound or a DMSO only control (high control, “HC”) was added to the plated cells in each well. Compounds were tested at concentrations of about 10 μM to 0.51 nM, using three-fold dilutions. The final proportion of DMSO never exceeded 0.1%.
(§5) Plates were placed in a 37° C., […] incubator for the indicated treatment times (Table B1). Plates were then removed from the incubator and equilibrated for 15 minutes at room temperature. 40 μl of CellTiter Glo reagent (Promega) was added to measure the relative level of metabolically active cells by quantifying intracellular ATP concentrations. Plates were incubated for 30 minutes at room temperature, and luminescence was measured. Percent viability was normalized to a vehicle control only using the following formula: 0 viability=100×(LumSample−LumLC)/(LumHC−LumLC). Graphical curves were fitted using a nonlinear regression model with a sigmoidal dose response.

HepG2 (NRAS Q61L) = test: Cell viability assay (CellTiter Glo); settings: HepG2, 750 cells per well, read-out: BRAF Cytotoxicity (IC50, nM) HEPG2
Experimental: as §1, §2, §3, §4, §5

SK-MEL-30 (NRAS Q61K) = test: Cell viability assay (CellTiter Glo); settings: SK-MEL-30, 750 cells per well, read-out: BRAF Cytotoxicity (IC50, nM) SK-MEL-30
Experimental: as §1, §2, §3, §4, §5

[2] = test system: OCI-AML-2 (MBNL1-CRAF fusion); test: Cell viability assay (CellTiter Glo); settings: OCI-AML-2, 1000 cells per well, read-out: BRAF Cytotoxicity (IC50, nM) OCI-AML-2
Experimental: as §1, §2, §3, §4, §5

K562 cells = test: Cell viability assay (CellTiter Glo); settings: Homo sapiens; K562 cells grown as in Example B1; read-out: BRAF Cytotoxicity (IC50, nM) K562
Experimental: K562 cells, cultured in Iscove's Modified Dulbecco's Media (IMDM) supplemented with 10% FBS, were harvested at 50-80% confluency and plated at 2,000 cells per well in 384-well tissue culture plates. A subset of wells contained media only (low control, LC). Compounds were serially diluted in DMSO. 40 nL of compound or DMSO only (high control, HC) were added to each well using an Echo 550 liquid handler (Labcyte). The plates were placed in a 37° C. incubator with 5% CO2 for 72 hours. Cell viability was measured using a CellTiter-Glo luminescent cell viability assay (Promega), which allows for relative quantification of metabolically active cells by luminescence-based measurements of intracellular ATP concentrations. Briefly, plates were removed from the incubator and equilibrated for 15 minutes at room temperature prior to the addition of 40 μL of CellTiter-Glo reagent. Plates were then incubated for 30 minutes at room temperature. Luminescence was measured using an EnSpire plate reader (Perkin Elmer). As noted above, luminescence values from wells with DMSO only or media without cells were used as high and low controls (HC and LC), respectively. Normalized percent viability was calculated as follows: percent viability=100×(LumSample−LumLC)/(LumHC−LumLC). IC50 values were calculated using the XLFit software.
as §1, §3, §4, §5

[3] = A375, 1000 cells seeded per well, 72 hours, read-out: BRAF Cytotoxicity (IC50, nM) A375 (1000 cells)
[4] = A375, 250 cells seeded per well, 72 hours, read-out: BRAF Cytotoxicity (IC50, nM) A375 (250 cells)
[5] = Homo sapiens, A-375, 72 h, A375, 1000 cells seeded per well, read-out: BRAF Cytotoxicity (IC50, nM) A375 (1000 cells)

SMILES | IC50 [1] | IC50 ([1]; Homo sapiens, A-375, 4 h) | IC50 (A375 (BRAF V600E); [3]) | IC50 (HepG2 (NRAS Q61L); 120 hours) | IC50 (SK-MEL-30 (NRAS Q61K); 120 hours) | further results
CCCC(O)c1cc(C)c(-c2cc3cnc(NC(=O)C4CC4)cc3n(C)c2=O)cn1 (single isomer, unassigned) [Example S42, Enantiomer A, N-(3-(6-(1-hydroxybutyl)-4-methylpyridin-3-yl)-1-methyl-2-oxo-1,2-dihydro-1,6-naphthyridin-7-yl)cyclopropanecarboxamide] | 55.1 nM |  | 930 nM |  |  | 
CCC(O)c1cc(C)c(-c2cc3cnc(NC(=O)[C@H]4CC4(F)F)cc3n(C)c2=O)cn1 (single isomer, unassigned) [Example S49, Isomer A] | 73.8 nM |  |  | 2750 nM | > 10000 nM | IC50 ([2]; 72 hours): > 10000 nM
CCC(O)c1cc(C)c(-c2cc3cnc(NC(=O)[C@H]4CC4(F)F)cc3n(C)c2=O)cn1 (single isomer, unassigned) [Example S49, Isomer B] | 8.64 nM |  |  | 12.6 nM | 103 nM | IC50 (A375 (BRAF V600E); Homo sapiens, A-375, 72 h, A375, 250 cells seeded per well, read-out: BRAF Cytotoxicity (IC50, nM) A375 (250 cells)): 74.9 nM; IC50 ([2]; 72 hours): 153 nM; IC50 (K562 cells): 733 nM
CCC(O)c1cc(C)c(-c2cc3cnc(NC(C)=O)cc3n(C)c2=O)cn1 (single isomer, unassigned) [Example S59, Enantiomer A, N-(3-(6-(1-hydroxypropyl)-4-methylpyridin-3-yl)-1-methyl-2-oxo-1,2-dihydro-1,6-naphthyridin-7-yl)acetamide] | 78.5 nM |  |  |  |  | IC50 (K562 cells): > 10000 nM
COCC(O)c1cc(C)c(-c2cc3cnc(NC(=O)C4CC4)cc3n(C)c2=O)cn1 (single isomer, unassigned) [Example S60, Enantiomer A, N-(3-{6-[1-hydroxy-2-methoxyethyl]-4-methylpyridin-3-yl}-1-methyl-2-oxo-1,6-naphthyridin-7-yl)cyclopropanecarboxamide] | 120 nM |  |  | > 10000 nM | > 10000 nM | IC50 (A375 (BRAF V600E); [4]): 5950 nM
COCC(O)c1cc(C)c(-c2cc3cnc(NC(=O)C4CC4)cc3n(C)c2=O)cn1 (single isomer, unassigned) [Example S60, Enantiomer B, N-(3-{6-[1-hydroxy-2-methoxyethyl]-4-methylpyridin-3-yl}-1-methyl-2-oxo-1,6-naphthyridin-7-yl)cyclopropanecarboxamide] | 19 nM |  |  | 225 nM | 3260 nM | IC50 (A375 (BRAF V600E); [4]): 1070 nM
CC[C@@H](O)c1cc(C)c(-c2cc3cnc(NC(=O)C4CC4)cc3n(C)c2=O)cn1 [Compound 68, (R)—N-(3-(6-(1-hydroxypropyl)-4-methylpyridin-3-yl)-1-methyl-2-oxo-1,2-dihydro-1,6-naphthyridin-7-yl)cyclopropanecarboxamide] |  | 249 nM |  |  |  | IC50 (A375 (BRAF V600E); [5]): 871 nM; IC50 ([2]; Homo sapiens, OCI-AML2, 72 h): 2510 nM
CCC(=O)c1cc(C)c(-c2cc3cnc(NC(=O)[C@H]4C[C@H]4F)cc3n(C)c2=O)cn1 [Compound 148, (1R,2R)-2-fluoro-N-(1-methyl-3-(4-methyl-6-propionylpyridin-3-yl)-2-oxo-1,2-dihydro-1,6-naphthyridin-7-yl)cyclopropane-1-carboxamide] |  | 19.3 nM |  |  |  | IC50 (K562 cells): 2640 nM
CCCC(=O)c1cc(C)c(-c2cc3cnc(NC(=O)[C@H]4C[C@H]4F)cc3n(C)c2=O)cn1 [Compound 151, (1R,2R)—N-(3-(6-butyryl-4-methylpyridin-3-yl)-1-methyl-2-oxo-1,2-dihydro-1,6-naphthyridin-7-yl)-2-fluorocyclopropane-1-carboxamide] |  | 10.4 nM |  |  |  | IC50 (HepG2 (NRAS Q61L); Homo sapiens, HepG2, 120 h): 37.3 nM; IC50 (SK-MEL-30 (NRAS Q61K); Homo sapiens, SK-MEL-30, 120 h): 244 nM; IC50 ([2]; Homo sapiens, OCI-AML2, 72 h): 448 nM

Second part, led by results:

IC50 [1] | IC50 ([1]; Homo sapiens, A-375, 4 h) | SMILES | IC50 (A375 (BRAF V600E); [3]) | IC50 (HepG2 (NRAS Q61L); 120 hours) | IC50 (SK-MEL-30 (NRAS Q61K); 120 hours) | further results
14.7 nM |  | CCCC(O)c1cc(C)c(-c2cc3cnc(NC(=O)C4CC4)cc3n(C)c2=O)cn1 (single isomer, unassigned) [Example S42, Enantiomer B, N-(3-(6-(1-hydroxybutyl)-4-methylpyridin-3-yl)-1-methyl-2-oxo-1,2-dihydro-1,6-naphthyridin-7-yl)cyclopropanecarboxamide] | 141 nM |  |  | 
 | 8.01 nM | CCCC(O)c1cc(C)c(-c2cc3cnc(NC(=O)[C@H]4C[C@H]4F)cc3n(C)c2=O)cn1 (single isomer, unassigned) [Example S43, Isomer A] | 52.1 nM | 82.1 nM | 399 nM | IC50 (A375 (BRAF V600E); [4]): 152 nM; IC50 ([2]; 72 hours): 457 nM; IC50 (K562 cells): 1690 nM
14.7 nM |  | CCCC(O)c1cc(C)c(-c2cc3cnc(NC(=O)[C@H]4C[C@H]4F)cc3n(C)c2=O)cn1 (single isomer, unassigned) [Example S43, Isomer B] | 189 nM | 843 nM | > 6150 nM | IC50 (A375 (BRAF V600E); [4]): 335 nM; IC50 ([2]; 72 hours): 2710 nM
230 nM |  | CCC(O)c1cc(C)c(-c2cc3cnc(NC(=O)[C@@H]4C[C@@H]4F)cc3n(C)c2=O)cn1 (single isomer, unassigned; isomer b) [Example S40, Isomer B] | 940 nM |  |  | 
 | 76.6 nM | CC[C@@H](O)c1cc(C)c(-c2cc3cnc(NC(=O)[C@H]4C[C@H]4F)cc3n(C)c2=O)cn1 [Compound 109, (1R,2R)-2-fluoro-N-(3-(6-((R)-1-hydroxypropyl)-4-methylpyridin-3-yl)-1-methyl-2-oxo-1,2-dihydro-1,6-naphthyridin-7-yl)cyclopropane-1-carboxamide] |  |  |  | IC50 (A375 (BRAF V600E); [5]): 1630 nM
